Where “and” joins values, the source holds several entries; their conditions need not be identical. Equal values may be shown once. One block for each compound: values may come before it.
Biological target: α-glucosidase enzyme from Saccharomyces cerevisiae type 1
Assay: α-Glucosidase inhibitory assay (p-NPG substrate, absorbance at 405 nm)
Assay type: biochemical
Details: for IC50: S. cerevisiae α-glucosidase type 1, p-NPG 2 mM, pH 6.5, 37°C, 30 min, triplicate; for inhibition of α-glucosidase (not screened for IC50): screening, concentration not given; for times more potent than acarbose: ratio of IC50 values versus acarbose
Description: For phosphate-buffered saline (PBS), NaH₂PO₄ (1.4 g), NaCl (8 g), KCl (0.2 g), and KH₂PO4 (0.2 g) were dissolved in deionized H2O (1 L) at 20°C. Using NaOH (1M) and HCl (1M), the pH of the solution was adjusted to 6.5 at 20°C. p-Nitrophenyl-α-D-glucopyranoside (2 mM) (p-NPG-substrate) was prepared by dissolving p-NPG (6 mg) in buffer solution (10 mL). α-Glucosidase enzyme Type 1, lyophilized powder (Sigma-Aldrich) from Saccharomyces cerevisiae (a mixture of MAL12 and MAL32) was employed. The enzyme solution was prepared by dissolving 1 mg of in 1000 μL of cold PBS (pH 6.5). Subsequently, 50 μL of α-glucosidase enzyme solution was mixed with cold buffered saline (12 mL) to a concentration of 0.125 unit/mL. For sample screening, a solution of 200 μg/mL concentration was prepared in 100% DMSO, and then subjected to two-fold serial dilution in 5% DMSO in a 96-well microplate to obtain concentrations of 100, 50, 25, 12.5, 6.25, 3.13, and 1.56 μg/mL. The samples were screened using Epoch 2 Microplate Spectrophotometer from BioTek. To each well of the 96-well microplate, 10 μL of DMSO (5%) was added. The stock solution (10 μL) was added to the first well and mixed. Then, 10 μL of sample was withdrawn from the first well and added to the second well, and the process was repeated for two-fold serial dilution. Subsequently, 20 μL of α-glucosidase enzyme, 40 μL of PBS (pH 6.5), and 20 μL of deionized H2O were added to each well of the 96-well microtiter plate with constant stirring. The plate was pre-incubated at 37°C for 10 min, and then 10 μL of p-NPG (2 mM) solution was added to the mixture; its absorbance at 0 min was measured at a wavelength of 405 nm. The reaction mixture was incubated at 37°C for 30 min, and subsequently, its absorbance was measured. […] The experiment was performed in triplicate. According to a previously described methodology, the α-glucosidase inhibitory activity was determined and the inhibition (%) of this activity was calculated using the following equation: %inhibition=(A30min−A0min)control−(A30min−A0min)exp/(A30min−A0min)control×100

IC50: 28.5 ± 1.22 µM
times more potent than acarbose: ~5
Compound: C=CCn1c(=O)c2ccccc2n2nc(S(C)(=O)=O)nc12 [Compound 8]

% inhibition of α-glucosidase (at 0.25 μM): 14.83% inhibition at 0.25 μM
Compound: Cc1ccc2c(=O)n(Cc3ccc(C#N)cc3)c3nc(Oc4ccccc4)nn3c2c1 [Compound 10]

% inhibition of α-glucosidase (at 0.23 μM): 19.52% inhibition at 0.23 μM
Compound: Cc1ccc2c(=O)n(Cc3ccc([N+](=O)[O-])cc3)c3nc(Oc4ccccc4)nn3c2c1 [Compound 11]

IC50: 12.7 ± 1.87 µM
times more potent than acarbose: approximately 12
Compound: O=C1c2ccccc2C(=O)N1CCn1c(=O)c2ccccc2n2nc(Oc3ccccc3)nc12 [Compound 14]

IC50: 97.53 ± 0.94 µM
Compound: O=c1c2ccccc2n2nc(Oc3ccccc3)nc2n1CCN1CCCCC1 [Compound 12]

% inhibition of α-glucosidase (at 0.21 μM): 27.93% inhibition at 0.21 μM
inhibition of α-glucosidase (not screened for IC50): less than 50%
Compound: Cc1ccc2c(=O)n(Cc3cccc(C#N)c3)c3nc(Oc4ccccc4)nn3c2c1 [Compound 13]

% inhibition of α-glucosidase (at 0.24 μM): 16.89% inhibition at 0.24 μM
Compound: O=c1c2ccccc2n2nc(Oc3ccccc3)nc2n1Cc1ccc([N+](=O)[O-])cc1 [Compound 9]

Continued, compound first:

Compound: CSc1nc2[nH]c(=O)c3ccccc3n2n1 [Compound 1]
IC50: 155.9 ± 1.36 µM

Compound: CSc1nc2n(Cc3ccc([N+](=O)[O-])cc3)c(=O)c3ccc(C)cc3n2n1 [Compound 6]
% inhibition of α-glucosidase (at 0.28 μM): 16.24% inhibition at 0.28 μM
inhibition of α-glucosidase (not screened for IC50): less than 50%

Compound: C=CCn1c(=O)c2ccccc2n2nc(SC)nc12 [Compound 5]
IC50: 45.6 µM and 72.3 µM

Compound: CS(=O)(=O)c1nc2[nH]c(=O)c3ccccc3n2n1 [Compound 2]
IC50: 180 µM

Compound: O=c1[nH]c2nc(Oc3ccccc3)nn2c2ccccc12 [Compound 3]
IC50: 83.9 ± 5.12 µM

Compound: CCn1c(=O)c2ccccc2n2nc(S(C)(=O)=O)nc12 [Compound 7]
% inhibition of α-glucosidase (at 0.34 μM): 19.15% inhibition at 0.34 μM
inhibition of α-glucosidase (not screened for IC50): less than 50%

Compound: CCn1c(=O)c2ccccc2n2nc(SC)nc12 [Compound 4]
IC50: 45.6 ± 4.28 µM
times more potent than acarbose: ~3

— publication PMC6693780, “Triazoloquinazolines as a new class of potent α-glucosidase inhibitors: in vitro evaluation and docking study” (PLoS ONE, 2019)
